IC50 data for one compound are collected here from PubChem BioAssay AID743410 (Sanford-Burnham Center for Chemical Genomics, 2014).

Molecules are shown by their SMILES.

For the assay, the system named is RS11846 B cell chemotaxis to 7a,25-OHC, calcein fluorescence. Put plainly: blockade of oxysterol-directed cell migration via EBI2 – chemotaxis, 7a,25-OHC, calcein fluorescence, dose response (AID 743410).

What is called IC50 is the concentration that inhibits the measured activity by half. With `O=C(/C=C/c1ccc(Br)cc1)N1CCN(Cc2ccc(Cl)cc2)CC1`, the concentration for half-maximal inhibition (IC50) was 6.24 nM.
